# Molecular target: T1, p53-Y220C mutant protein (Homo sapiens, UniProt P04637, Y220C)
# T1 construct: The recombinant Y220C p53 DBD protein with his-tag
# Experiment: In vitro DNA binding activity assay (TR-FRET)
# Type: biochemical
# Conditions: concentration required to increase the binding activity of protein to DNA by 50%
# Procedure: The activity of the compound to modulate the binding of the p53-Y220C mutant protein to DNA was detected using TR-FREt (Time-Resolved Fluorescence Resonance Energy Transfer). The recombinant Y220C p53 DBD protein with his-tag and the DNA sequence with biotin label were prepared firstly. Donor Eu(Europium)-SA(Streptavidin) can be bound to the DNA sequence through biotin, receptor for his antibody attached to alphaphycocyanin(APC, allophycocyanin), and his antibody can be bound to the Y220C p53 DBD protein with his-tag. When exposed to an excitation light with a wavelength of 340 nm, the donor Eu(Europium)-SA(Streptavidin) can emit fluorescence with a wavelength of 615 nm. If the donor and the receptor are close to each other, the donor will transfer part of the energy to the receptor and produce fluorescence with a wavelength of 665 nm. […] If there is no interaction, only 615 nm fluorescence is produced. • 1) Experimental steps • a. Adding 4 µL of dilute compound solution to each well of a 384-well microplate; • a. Adding 4 µL of 4X P53 working solution to each well of the 384-well microplate; • c. Sealing the 384-well microplate and equilibrating the system at room temperature for 60 min; • d. Adding 4 µl of biotin DNA solution to the 384-well microplate; • e. Adding 4 µl of 4X test solution (MAb Anti-6His-Eu and streptavidin-d2) to each well of the 384-well microplate; • f. Incubating overnight in the dark; and • g. Reading data of 665 nm and 615 nm wavelengths on the BMG multifunctional microplate reader. • 2) Data analysis • a. Calculating the ratio for each well (Ratio665 nm/615 nm-Ratiobackground); • b. Calculating the activity percentage (%activity) as follows: C = (Ave_Ac−Ave_Ba)/(Ave_Dc−Ave_Bd) [formula] R data = (A−Ave_Ba−CD)/(D−Ave_Bd)*(Ave_Dc−Ave_Bd) [formula] % Activity = R data/Ave_VC*100 [formula] • A: Fluorescence intensity of the sample at 665 nm; D: Fluorescence intensity of the sample at 615 nm; • Ba: Background fluorescence intensity of the culture plate at 665 nm; Bd: Background fluorescence intensity of the culture plate at 615 nm; • Dc: Background fluorescence intensity of HIS-E at 615 nm; Ac: Background fluorescence intensity of streptavidin-d2 at 665 nm); and • c. Calculating SC150 and plotting dose-effect curve
# Compared to the absence of the compound of the present invention, the activation percentage of binding of the p53 mutant protein to DNA in the presence of the compound of the present invention is expressed as SC150, which indicates the concentration of the compound required to increase the DNA binding activity of the p53 mutant protein by 50%. The SC150 is calculated using Prism™.
row,Structure (SMILES),SC150 [nM]
1,"CN(C)C1CC[C@@H](Nc2cccc3c(CC(F)(F)F)c(C#CCNC(=O)c4cnn(C(C)(C)C)c4N)nn23)[C@@H](F)C1 (single isomer, unassigned) [Compound 358-B]",32
2,"CN1CCCC(Nc2cccc3c(CC(F)(F)F)c(C#CCNC(=O)c4cnn(C(C)(C)C)c4N)nn23)CC1 (single isomer, unassigned) [Compound 369-B, 5-amino-1-tert-butyl-N-(3-(7-[(1-methylazepan-4-yl)amino]-3-(2,2,2-trifluoroethyl)pyrazolo[1,5-a]pyridin-2-yl)prop-2-yn-1-yl)-1H-pyrazole-4-carboxamide]",5
3,"CN1CC[C@@H](Nc2cccc3c(CC(F)(F)F)c(C#CCNC(=O)c4cnn(C5CC5)c4)nn23)[C@@H](F)C1 [Compound 005, 1-cyclopropyl-N-[3-(7-{[(3S,4R)-3-fluoro-1-methylpiperidin-4-yl]amino}-3-(2,2,2-trifluoroethyl)pyrazolo[1,5-a]pyridin-2-yl)prop-2-yn-1-yl]-1H-pyrazole-4-carboxamide]",16
4,"CN1CC[C@@H](Nc2cccc3c(CC(F)(F)F)c(C#CCNC(=O)c4cnn(C5CCC5)c4)nn23)[C@@H](F)C1 [Compound 006, 1-cyclobutyl-N-[3-(7-{[(3S,4R)-3-fluoro-1-methylpiperidin-4-yl]amino}-3-(2,2,2-trifluoroethyl)pyrazolo[1,5-a]pyridin-2-yl)prop-2-yn-1-yl]-1H-pyrazole-4-carboxamide]",11
5,"CN1CC[C@@H](Nc2cccc3c(CC(F)(F)F)c(C#CCNC(=O)c4cnn(C5CCCC5)c4)nn23)[C@@H](F)C1 [Compound 007, 1-cyclopentyl-N-[3-(7-{[(3S,4R)-3-fluoro-1-methylpiperidin-4-yl]amino}-3-(2,2,2-trifluoroethyl)pyrazolo[1,5-a]pyridin-2-yl)prop-2-yn-1-yl]-1H-pyrazole-4-carboxamide]",11
6,"CN1CC[C@@H](Nc2cccc3c(CC(F)(F)F)c(C#CCNC(=O)c4cnn(C5(C)CC5)c4)nn23)[C@@H](F)C1 [Compound 010, N-[3-(7-{[(3S,4R)-3-fluoro-1-methylpiperidin-4-yl]amino}-3-(2,2,2-trifluoroethyl)pyrazolo[1,5-a]pyridin-2-yl)prop-2-yn-1-yl]-1-(1-methylcyclopropyl)-1H-pyrazole-4-carboxamide]",9
7,"CN1CC[C@@H](Nc2cccc3c(CC(F)(F)F)c(C#CCNC(=O)c4cnn(C5CCOCC5)c4)nn23)[C@@H](F)C1 [Compound 013, N-[3-(7-{[(3S,4R)-3-fluoro-1-methylpiperidin-4-yl]amino}-3-(2,2,2-trifluoroethyl)pyrazolo[1,5-a]pyridin-2-yl)prop-2-yn-1-yl]-1-((tetrahydro-2H-pyran-4-yl))-1H-pyrazole-4-carboxamide]",7

# Now from value to compound:
row,SC150 [nM],Structure (SMILES)
1,8,"CN1CCCC(Nc2cccc3c(CC(F)(F)F)c(C#CCNC(=O)c4cnn(C(C)(C)C)c4N)nn23)CC1 (single isomer, unassigned) [Compound 369-A, 5-amino-1-tert-butyl-N-(3-(7-[(1-methylazepan-4-yl)amino]-3-(2,2,2-trifluoroethyl)pyrazolo[1,5-a]pyridin-2-yl)prop-2-yn-1-yl)-1H-pyrazole-4-carboxamide]"
2,7,"CN1CC[C@@H](Nc2cccc3c(CC(F)(F)F)c(C#CCNC(=O)c4cnn(C5COC5)c4)nn23)[C@@H](F)C1 [Compound 009, N-[3-(7-{[(3S,4R)-3-fluoro-1-methylpiperidin-4-yl]amino}-3-(2,2,2-trifluoroethyl)pyrazolo[1,5-a]pyridin-2-yl)prop-2-yn-1-yl]-1-(oxetan-3-yl)-1H-pyrazole-4-carboxamide]"
3,4,"CN1CCC(n2cc(C(=O)NCC#Cc3nn4c(N[C@@H]5CCN(C)C[C@@H]5F)cccc4c3CC(F)(F)F)cn2)CC1 [Compound 012, N-[3-(7-{[(3S,4R)-3-fluoro-1-methylpiperidin-4-yl]amino}-3-(2,2,2-trifluoroethyl)pyrazolo[1,5-a]pyridin-2-yl)prop-2-yn-1-yl]-1-(1-methylpiperidin-4-yl)-1H-pyrazole-4-carboxamide]"

# Source: patent EP4737449A1 (Changchun Genescience Pharmaceutical Co., Ltd., priority 2023, dated 2025)
